# Reference: PMC5553892, “A fourth subtype of retinoic acid receptor-related orphan receptors is activated by oxidized all-trans retinoic acid in medaka (Oryzias latipes)” (Zoological Letters, 2017)
# Experiments:
# Type in all cases: cell-based
# RORd1 [1] = biological target: T1, RORd1 (Oryzias latipes, UniProt H2LFF5); test: Gal4-RORd1 LBD luciferase reporter assay in stable HEK293 cells (agonist)
# T1 construct: gene rorca
# T1 sequence (H2LFF5 98-473): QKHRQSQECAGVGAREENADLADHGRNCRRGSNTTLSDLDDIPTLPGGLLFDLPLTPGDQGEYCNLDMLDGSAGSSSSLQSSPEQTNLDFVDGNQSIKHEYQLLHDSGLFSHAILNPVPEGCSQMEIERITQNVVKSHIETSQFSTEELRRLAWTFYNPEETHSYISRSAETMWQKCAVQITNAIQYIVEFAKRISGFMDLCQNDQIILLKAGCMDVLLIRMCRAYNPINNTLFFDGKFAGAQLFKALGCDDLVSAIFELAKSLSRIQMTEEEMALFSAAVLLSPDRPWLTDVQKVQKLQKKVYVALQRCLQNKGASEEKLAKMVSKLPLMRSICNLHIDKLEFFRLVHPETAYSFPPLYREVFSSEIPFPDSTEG
# RORd1 [2] = biological target: T1, RORd1; test: Gal4-RORd1 LBD luciferase reporter assay in stable HEK293 cells (weak agonist, […], EC50 not calculable)
# RORd1 [3] = biological target: T1, RORd1; test: as above; remark: listed apart in the source
structure (smiles),measurement,setting,value
"CC1=C(/C=C/C(C)=C/C=C/C(C)=C/C(=O)O)C(C)(C)CCC1=O [4 K–ATRA, all-trans 4-ketoretinoic acid]",EC50,RORd1 [1],737 ± 47.3 nM
"CC1=C(/C=C/C(C)=C/C=C/C(C)=C/C(=O)O)C(C)(C)CCC1O (stereo not drawn) [4OH-ATRA, all-trans 4-hydroxyretinoic acid]",EC50,RORd1 [1],539 ± 97.3 nM
"CC(/C=C/C12OC1(C)CCCC2(C)C)=C\C=C\C(C)=C\C(=O)O (stereo not drawn) [5,6E–ATRA, all-trans 5,6-epoxyretinoic acid]",EC50,RORd1 [2],> 10000 nM
"CC1=C(/C=C/C(C)=C/C=C/C(C)=C/C(=O)O)C(C)(C)CCC1 [ATRA, all-trans retinoic acid]",EC50,RORd1 [3],> 10000 nM
